Reference: the supplement of paper PMC4862054

Key:
Conditions in all cases: incubation time: 72 h
BT-474 [1] = test: normalised response (% of control), CellTiter-Glo; higher = more viable cells (100 = DMSO, 0 = benzethonium chloride kill control)
How it was run: (§1)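 After 72 h with compound in 384-well plates, breast cancer cell lines seeded as 20 µl suspension were read for CellTox Green fluorescence at 485/520 nm. CellTiter-Glo luminescence was then read after 10 min at room temperature. Compound was present at 5 concentrations in 10-fold steps over a 10,000-fold range set per compound, and plates were normalised to 0.1 % DMSO (100) and a positive kill control (0). Values are normalised signals, each at a single concentration.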

BT-549 [2] = test: as above
How it was run: as §1

CAL-120 [3] = test: as above
How it was run: as §1

CAL-148 [4] = test: as above
How it was run: as §1

CAL-51 [5] = test: as above
How it was run: as §1

CAL-85-1 [6] = test: as above
How it was run: as §1

DU-4475 [7] = test: as above
How it was run: as §1

HCC1143 [8] = test: as above
How it was run: as §1

HCC1599 [9] = test: as above
How it was run: as §1

HCC1937 [10] = test: as above
How it was run: as §1

HDQ-P1 [11] = test: as above
How it was run: as §1

Hs578T [12] = test: as above
How it was run: as §1

MCF-10A = test: as above
How it was run: as §1

MDA-MB-231 [13] = test: as above
How it was run: as §1

MDA-MB-436 [14] = test: as above
How it was run: as §1

MDA-MB-453 [15] = test: as above
How it was run: as §1

MDA-MB-468 [16] = test: as above
How it was run: as §1

MFM-223 [17] = test: as above
How it was run: as §1

SK-BR-3 [18] = test: as above
How it was run: as §1

BT-474 [19] = test: normalised viability (% of control), CellTiter-Blue; higher = more viable cells (100 = DMSO, 0 = benzethonium chloride kill control)
Description: (§2)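 DSRT, CellTiter-Blue viability, 72 h incubation. Signal is normalised to DMSO and benzethonium chloride controls. Value is the normalised response at dose 1.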

BT-549 [20] = test: as above
Description: as §2

CAL-120 [21] = test: as above
Description: as §2

CAL-148 [22] = test: as above
Description: as §2

CAL-51 [23] = test: as above
Description: as §2

CAL-85-1 [24] = test: as above
Description: as §2

DU-4475 [25] = test: as above
Description: as §2

HCC1143 [26] = test: as above
Description: as §2

HCC1599 [27] = test: as above
Description: as §2

HCC1937 [28] = test: as above
Description: as §2

HDQ-P1 [29] = test: as above
Description: as §2

Hs578T [30] = test: as above
Description: as §2

MDA-MB-231 [31] = test: as above
Description: as §2

MDA-MB-436 [32] = test: as above
Description: as §2

MDA-MB-453 [33] = test: as above
Description: as §2

MDA-MB-468 [34] = test: as above
Description: as §2

MFM-223 [35] = test: as above
Description: as §2

SK-BR-3 [36] = test: as above
Description: as §2

Row | Compound | normalised response (BT-474 [1]) [%] | normalised response (BT-549 [2]) [%] | normalised response (CAL-120 [3]) [%] | normalised response (CAL-148 [4]) [%] | normalised response (CAL-51 [5]) [%] | normalised response (CAL-85-1 [6]) [%] | normalised response (DU-4475 [7]) [%] | normalised response (HCC1143 [8]) [%] | normalised response (HCC1599 [9]) [%] | normalised response (HCC1937 [10]) [%] | normalised response (HDQ-P1 [11]) [%] | normalised response (Hs578T [12]) [%] | normalised response (MCF-10A) [%] | normalised response (MDA-MB-231 [13]) [%] | normalised response (MDA-MB-436 [14]) [%] | normalised response (MDA-MB-453 [15]) [%] | normalised response (MDA-MB-468 [16]) [%] | normalised response (MFM-223 [17]) [%] | normalised response (SK-BR-3 [18]) [%] | normalised viability (BT-474 [19]) [%] | normalised viability (BT-549 [20]) [%] | normalised viability (CAL-120 [21]) [%] | normalised viability (CAL-148 [22]) [%] | normalised viability (CAL-51 [23]) [%] | normalised viability (CAL-85-1 [24]) [%] | normalised viability (DU-4475 [25]) [%] | normalised viability (HCC1143 [26]) [%] | normalised viability (HCC1599 [27]) [%] | normalised viability (HCC1937 [28]) [%] | normalised viability (HDQ-P1 [29]) [%] | normalised viability (Hs578T [30]) [%] | normalised viability (MDA-MB-231 [31]) [%] | normalised viability (MDA-MB-436 [32]) [%] | normalised viability (MDA-MB-453 [33]) [%] | normalised viability (MDA-MB-468 [34]) [%] | normalised viability (MFM-223 [35]) [%] | normalised viability (SK-BR-3 [36]) [%]
1 | Cc1c(N)nc([C@H](CC(N)=O)NC[C@H](N)C(N)=O)nc1C(=O)N[C@H](C(=O)N[C@H](C)[C@@H](O)[C@H](C)C(=O)N[C@H](C(=O)NCCc1nc(-c2nc(C(=O)NCCC[S+](C)C)cs2)cs1)[C@@H](C)O)[C@@H](OC1OC(CO)C(O)C(O)C1OC1OC(CO)C(O)C(OC(N)=O)C1O)c1cnc[nH]1 (stereo partly specified) [Bleomycin] (1 nM) | 96.3 | 104 | 99 | 93.2 | 113 | 97.4 | 97.1 | 96.4 | 90.8 | 98 | 96.4 | 97.3 | 93.2 | 92.3 | 102 | 105 | 95.5 | 96.5 | 103 | 84.4 | 97.3 | 89.3 | 112 | 94.5 | 97.8 | 116 | 92.5 | 126 | 92.7 | 91.5 | 98.8 | 86.7 | 121 | 91.7 | 85.4 | 102 | 83.4
2 | Cc1cc2c(F)c(Oc3ncnn4cc(OC[C@@H](C)O)c(C)c34)ccc2[nH]1 [Brivanib] (0.1 nM) | 104 | 100 | 101 | 106 | 114 | 101 | 104 | 104 | 111 | 101 | 97.9 | 104 | 108 | 107 | 101 | 104 | 113 | 105 | 111 | 93.5 | 109 | 78.7 | 107 | 93.4 | 86.7 | 109 | 101 | 96 | 82.1 | 84.9 | 112 | 99.5 | 114 | 104 | 104 | 96.5 | 98
3 | CC(C)C[C@H](NC(=O)[C@H](CCc1ccccc1)NC(=O)CN1CCOCC1)C(=O)N[C@@H](Cc1ccccc1)C(=O)N[C@@H](CC(C)C)C(=O)[C@@]1(C)CO1 [Carfilzomib] (0.1 nM) | 108 | 97.3 | 103 | 109 | 124 | 105 | 103 | 104 | 120 | 105 | 110 | 100 | 106 | 107 | 105 | 108 | 109 | 104 | 105 | 116 | 105 | 89.8 | 99.9 | 110 | 95.5 | 107 | 100 | 100 | 84.8 | 95.6 | 100 | 132 | 101 | 96.9 | 100 | 83.4 | 99.7
